From ChEMBL document CHEMBL3297659, “Discovery, isolation, and structure elucidation of dretamycin” (J Nat Prod, 2014)
The source made the active and inactive calls. The rule behind the calls is not given here.

Columns and labels:
Candida albicans [1] = assay: Growth stimulation in Candida albicans expressing DIP5 heterozygous mutant; assay type: functional, organism-based
Candida albicans [2] = assay: Antifungal activity against Candida albicans expressing DRE-2 heterozygous mutant; assay type: functional, organism-based
Candida albicans [3] = assay: Antifungal activity against Candida albicans expressing DRE-2 heterozygous mutant assessed as clear zone of inhibition by agar diffusion method; assay type: functional, organism-based
Candida albicans [4] = assay: Antifungal activity against wild-type Candida albicans assessed as hazy zone of inhibition by agar diffusion assay; assay type: functional, organism-based
[5] = Stability in aqueous solution at below pH 7.0; assay type: physicochemical; details: buffer
Candida = assay: Antifungal activity against Candida spp.; assay type: functional
Saccharomyces cerevisiae = assay: Antifungal activity against Saccharomyces cerevisiae; assay type: functional
Aspergillus fumigatus = assay: Antifungal activity against Aspergillus fumigatus; assay type: functional

With `NC(=O)C1=CN(O)C(C(=O)O)C1` (stereo not drawn) [listing 1 of 2 here] the Activity (Candida albicans [1]) was “Active”, the Activity (Candida albicans [2]) was “Active” and the “growth inhibition (GI)” value (Candida albicans [3]) was “Active”. The “growth inhibition (GI)” value (Candida albicans [4]) was “Active”.
In the case of `NC(=O)C1=CN(O)C(C(=O)O)C1` (stereo not drawn) [listing 2 of 2 here], the Stability [5] is reported as “Unstable” and the MIC (Candida) is reported as greater than 8 µg/mL.
`NC(=O)C1=CN(O)C(C(=O)[O-])C1.[K+]` (stereo not drawn) showed an MIC (Saccharomyces cerevisiae) greater than 32 µg/mL and an MIC (Aspergillus fumigatus) greater than 32 µg/mL.
